Data taken from BindingDB's records for doi:10.7270/Q2M61HPT (Nmmlsc, 2008).
pEC50: −log10 of the molar value.

target: Glutathione S-transferase class-mu 26 kDa isozyme (Schistosoma japonicum, UniProt P08515); assay: GST–glutathione interaction disruption – biochemical, multiplex beads, flow cytometry, HPSMTB buffer, profiling panel (AID 1324)
Sequence (P08515 2-218 limits assumed): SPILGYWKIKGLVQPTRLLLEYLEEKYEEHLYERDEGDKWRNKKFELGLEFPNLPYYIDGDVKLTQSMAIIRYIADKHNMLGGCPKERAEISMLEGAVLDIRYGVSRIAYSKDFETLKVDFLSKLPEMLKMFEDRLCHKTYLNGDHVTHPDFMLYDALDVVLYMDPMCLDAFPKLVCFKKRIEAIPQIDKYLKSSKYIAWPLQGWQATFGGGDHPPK

Row | SMILES | pEC50
1 | COc1cccc(CN=Nc2nn3cnnc3c3ccccc23)c1 [N-[1-(3-Methoxy-phenyl)-meth-(E)-ylidene]-N'-[1,2,4]triazolo[3,4-a]phthalazin-6-yl-hydrazine] | 5.14
2 | COc1cc(CN=Nc2nn3cnnc3c3ccccc23)ccc1O [(4E)-2-methoxy-4-[[2-([1,2,4]triazolo[3,4-a]phthalazin-6-yl)hydrazinyl]methylidene]cyclohexa-2,5-dien-1-one] | 5.63
3 | CN(C)[C@@H]1C(=O)C(C(=O)NCN2CCCC2)C(=O)[C@@]2(O)C(=O)C3C(=O)c4c(O)cccc4[C@@](C)(O)C3CC12 (stereo partly drawn) [(2Z,4S,6S,12aS)-4-(dimethylamino)-6,10,11,12a-tetrahydroxy-2-[hydroxy-(1-pyrrolidinylmethylamino)methylidene]-6-methyl-4,4a,5,5a-tetrahydrotetracene-1,3,12-trione] | 4.67
4 | O=[N+]([O-])c1ccc(N=NCc2ccc(O)c(O)c2O)c(S(=O)(=O)N2CCOCC2)c1 [MLS000336720] | 4.62
